Data set [1] in a line: Cytotoxicity against Homo sapiens (human) HeLa cells. In kind it is cell-based.
Data set [2] can be described thus: Cytotoxicity against Homo sapiens (human) MT4 cells. In kind it is cell-based.
A further data set has as its system Bacillus subtilis. Briefly: Antimicrobial activity against Bacillus subtilis after 24 hr by serial dilution method. In kind it is functional.
The subject of a further data set is Escherichia coli. Briefly: Antimicrobial activity against Escherichia coli after 24 hr by serial dilution method. In kind it is functional.
Data set [3] has as its system Mammalian orthoreovirus 1. Briefly: Antiviral activity against Mammalian orthoreovirus 1 infected Vero cells assessed as inhibition of virus-induced cytopathicity. Type of data set: functional, organism-based. The conditions noted are these: Mammalian orthoreovirus 1, Vero. A general note: Cytopathic effects are the visible damage that an infection or toxin causes in cultured cells.

The test system of data set [4] is Human immunodeficiency virus 2. Briefly: Antiviral activity against Human immunodeficiency virus type 2 (ISOLATE ROD) infected human MT4 cells assessed as inhibition of virus-induced cytopathicity. In kind it is functional, organism-based. The conditions noted are these: Human immunodeficiency virus 2, ISOLATE ROD.
Another data set deals with Candida albicans. Briefly: Antimicrobial activity against Candida albicans after 48 hr by serial dilution method. In kind it is functional.
The nature of data set [5]: Cytotoxicity against Chlorocebus aethiops (African green monkey) Vero cells assessed as alteration in cell morphology. Type of data set: cell-based. The conditions noted are these: chlorocebus sabaeus.
The subject of a further data set is Sindbis virus. Briefly: Antiviral activity against Sindbis virus infected Vero cells assessed as inhibition of virus-induced cytopathicity. Type of data set: functional, organism-based.
Data set [6] concerns Human immunodeficiency virus 1. Briefly: Antiviral activity against Human immunodeficiency virus 1 IIIB infected human MT4 cells assessed as inhibition of virus-induced cytopathicity. Type of data set: functional, organism-based.
For another data set, the system named is Vaccinia virus. Nature of the data set: Antiviral activity against Vaccinia virus infected human HEL cells assessed as inhibition of virus-induced cytopathicity. In kind it is functional, organism-based. The conditions noted are these: Orthopoxvirus vaccinia.
Data set [7] concerns Coxsackievirus B4. Nature of the data set: Antiviral activity against Human coxsackievirus B4 infected human HeLa cells assessed as inhibition of virus-induced cytopathicity. Type of data set: functional, organism-based. Conditions: Enterovirus B.
Data set [8] is described as follows: Cytotoxicity against Homo sapiens (human) HEL cells. Type of data set: cell-based.
In data set [9] the test system is Respiratory syncytial virus. Nature of the data set: Antiviral activity against Respiratory syncytial virus infected human HeLa cells assessed as inhibition of virus-induced cytopathicity. In kind it is functional, organism-based.
The subject of another data set is Staphylococcus aureus. Nature of the data set: Antimicrobial activity against Staphylococcus aureus after 24 hr by serial dilution method. In kind it is functional.
Data set [10] has as its system Human alphaherpesvirus 1. Nature of the data set: Antiviral activity against TK(-) aciclovir-resistant Human herpesvirus 1 strain KOS infected in human HEL cells assessed as inhibition of virus-induced cytopathicity. Type of data set: functional, organism-based. The conditions noted are these: Human alphaherpesvirus 1, KOS.
The test system of a further data set is Human alphaherpesvirus 2. Nature of the data set: Antiviral activity against Human herpesvirus 2 strain G infected human HEL cells assessed as inhibition of virus-induced cytopathicity. Conditions: Human alphaherpesvirus 2, strain G. Type of data set: functional, organism-based.
For data set [11], the system named is Coxsackievirus B4. Nature of the data set: Antiviral activity against Human coxsackievirus B4 infected Vero cells assessed as inhibition of virus-induced cytopathicity. Conditions: Enterovirus B. Type of data set: functional, organism-based.
In a further data set the test system is Human respirovirus 3. Nature of the data set: Antiviral activity against Human parainfluenza virus 3 infected Vero cells assessed as inhibition of virus-induced cytopathicity. Type of data set: functional, organism-based. Conditions: Human respirovirus 3, Vero.
A further data set relates to Aspergillus niger. Nature of the data set: Antimicrobial activity against Aspergillus niger after 7 days by serial dilution method. Type of data set: functional.
For a further data set, the system named is Punta Toro virus. Briefly: Antiviral activity against Punta Toro virus infected Vero cells assessed as inhibition of virus-induced cytopathicity. In kind it is functional, organism-based.
Data set [12] relates to Vesicular stomatitis virus. Nature of the data set: Antiviral activity against Vesicular stomatitis virus infected human HeLa cells assessed as inhibition of virus-induced cytopathicity. Type of data set: functional, organism-based.
Data set [13] concerns Human alphaherpesvirus 1. Briefly: Antiviral activity against Human herpesvirus 1 strain KOS infected in human HEL cells assessed as inhibition of virus-induced cytopathicity. Type of data set: functional, organism-based. The conditions noted are these: Human alphaherpesvirus 1, KOS.

Structures are written as SMILES. In brackets after ≈: the same amount, converted by molar mass.

`CCOc1cc(/C=N/NC(=O)c2ccncc2)ccc1O`: the MCC in data set [1], in [5] and in [8] was above 100 µg/mL throughout. In addition, in data set [2], the CC50 (as a rule, the concentration at which the toxic effect on the cells reaches its halfway point) was found to be 102 mg/L (≈ 358 µM). Also, the “-logMIC” value was 2.06 in the data set with Bacillus subtilis; 2.36 with Escherichia coli; 2.36 in the data set on Candida albicans; 2.06 with Staphylococcus aureus; 2.36 in the data set with Aspergillus niger. In addition, the EC50 (usually the concentration that produces a half-maximal response) in data set [3] is above 100 mg/L; in data set [4], above 102 mg/L; in the data set on Sindbis virus, above 100 mg/L; in data set [6], above 102 mg/L; in the data set with Vaccinia virus it was above 100 mg/L; in the data set with Coxsackievirus B4 [7] it was above 100 mg/L. Also, the EC50 (in [9]; in the data set with Human alphaherpesvirus 1 [10]; in the data set with Human alphaherpesvirus 2; with Coxsackievirus B4 [11]; in the data set with Human respirovirus 3; in the data set on Punta Toro virus) was above 100 mg/L each time. Besides, the EC50 (in data set [12]; with Human alphaherpesvirus 1 [13]) was above 100 mg/L each time.
For `COc1cccc(OC)c1/C=N/NC(=O)c1ccncc1`, the figures for the MCC in data set [1], in data set [5] and in [8] were 100 µg/mL, 100 µg/mL and above 100 µg/mL, respectively. Further, the CC50 in data set [2] amounted to 9 mg/L (≈ 31.5 µM). For the same compound, the “-logMIC” value in the data set on Bacillus subtilis amounted to 2.06; with Escherichia coli, 2.06; with Candida albicans, 2.36; with Staphylococcus aureus, 2.06; in the data set with Aspergillus niger, 2.36. For the same compound, the EC50 was above 20 mg/L in [3]; above 9 mg/L in [4]; above 20 mg/L in the data set on Sindbis virus; above 9 mg/L in data set [6]; above 100 mg/L with Vaccinia virus; above 20 mg/L in the data set with Coxsackievirus B4 [7]. The EC50 in [9] is above 20 mg/L; with Human alphaherpesvirus 1 [10] it was above 100 mg/L; in the data set with Human alphaherpesvirus 2, above 100 mg/L; in the data set on Coxsackievirus B4 [11], above 20 mg/L; in the data set on Human respirovirus 3, above 20 mg/L; in the data set with Punta Toro virus it was above 20 mg/L. Besides, the EC50 is above 20 mg/L in data set [12] and above 100 mg/L in the data set with Human alphaherpesvirus 1 [13].
Regarding `COc1cc(/C=N/NC(=O)c2ccncc2)cc(OC)c1OC`, the MCC in data set [1] was at least 100 µg/mL; in [5], above 100 µg/mL; in data set [8], above 100 µg/mL. In addition, the midpoint of cytotoxicity in [2], the CC50, lay at 110 mg/L (≈ 349 µM). In addition, the “-logMIC” value in the data set on Bacillus subtilis came out at 2.4; with Escherichia coli, 2.1; in the data set on Candida albicans it was 2.4; with Staphylococcus aureus it was 2.1; in the data set on Aspergillus niger it was 2.4. In addition, the EC50 in [3] was above 100 mg/L; in [4] it was above 110 mg/L; in the data set on Sindbis virus it was above 100 mg/L; in data set [6] it was above 110 mg/L; with Vaccinia virus it was above 100 mg/L; with Coxsackievirus B4 [7] it was above 100 mg/L. The EC50 (in [9]; in the data set on Human alphaherpesvirus 1 [10]; in the data set on Human alphaherpesvirus 2; in the data set with Coxsackievirus B4 [11]; in the data set on Human respirovirus 3; in the data set with Punta Toro virus) was above 100 mg/L in each case. The EC50 (in data set [12]; in the data set with Human alphaherpesvirus 1 [13]) was above 100 mg/L each time.
Consider `CSc1ccc(/C=N/NC(=O)c2ccncc2)cc1`, for which the MCC in data set [1] is 100 µg/mL; in data set [5], at least 100 µg/mL; in data set [8], above 100 µg/mL. This compound also had a CC50 in data set [2] of 59 mg/L (≈ 217 µM). The “-logMIC” value is listed as 2.04 with Bacillus subtilis; 2.34 in the data set with Escherichia coli; 2.34 in the data set with Candida albicans; 2.04 with Staphylococcus aureus; 2.34 with Aspergillus niger. Besides, the EC50 in [3] was above 100 mg/L; in data set [4], above 59 mg/L; in the data set with Sindbis virus it was above 100 mg/L; in data set [6], above 59 mg/L; in the data set with Vaccinia virus, above 100 mg/L; with Coxsackievirus B4 [7], above 20 mg/L. The EC50 in [9] was above 20 mg/L; in the data set with Human alphaherpesvirus 1 [10], above 100 mg/L; in the data set on Human alphaherpesvirus 2, above 100 mg/L; with Coxsackievirus B4 [11] it was 9 mg/L (≈ 33.2 µM); in the data set with Human respirovirus 3 it was above 100 mg/L; with Punta Toro virus it was above 100 mg/L. Also, the values for the 50% effective concentration (EC50) (in [12]; in the data set with Human alphaherpesvirus 1 [13]) were above 20 mg/L and above 100 mg/L, respectively.
Regarding `O=C(N/N=C/c1c[nH]c2ccccc12)c1ccncc1`, the values for the MCC in [1], in data set [5] and in data set [8] were at least 100 µg/mL, above 100 µg/mL and above 100 µg/mL, respectively. In data set [2], this compound displayed a CC50 of 95 mg/L (≈ 359 µM). For the same compound, the “-logMIC” value with Bacillus subtilis amounted to 2.02; with Escherichia coli, 2.02; in the data set with Candida albicans, 2.63; in the data set with Staphylococcus aureus, 2.02; in the data set with Aspergillus niger, 2.32. For the same compound, the EC50 is 2.4 mg/L (≈ 9.08 µM) in [3]; above 95 mg/L in data set [4]; above 100 mg/L in the data set with Sindbis virus; above 95 mg/L in [6]; above 100 mg/L in the data set on Vaccinia virus; above 100 mg/L in the data set with Coxsackievirus B4 [7]. Further, the EC50 in data set [9] was above 100 mg/L; in the data set with Human alphaherpesvirus 1 [10] it was above 100 mg/L; with Human alphaherpesvirus 2, above 100 mg/L; with Coxsackievirus B4 [11], 45 mg/L (≈ 170 µM); in the data set on Human respirovirus 3, above 100 mg/L; in the data set on Punta Toro virus, above 100 mg/L. Further, the EC50 (in data set [12]; in the data set on Human alphaherpesvirus 1 [13]) was above 100 mg/L throughout.
For the compound `O=C(N/N=C/c1c(O)ccc2ccccc12)c1ccncc1`, the MCC in [1] was 0.2 µg/mL; in data set [5], at least 0.8 µg/mL; in data set [8] it was at least 20 µg/mL. In data set [2], this compound returned a CC50 of 0.1 mg/L (≈ 0.343 µM). For the same compound, the “-logMIC” value was found to be 2.07 in the data set with Bacillus subtilis; 2.07 with Escherichia coli; 2.37 in the data set on Candida albicans; 2.07 with Staphylococcus aureus; 2.37 in the data set with Aspergillus niger. The EC50 in [3] was above 0.8 mg/L; in data set [4], above 0.1 mg/L; with Sindbis virus, above 0.8 mg/L; in data set [6], above 0.1 mg/L; in the data set on Vaccinia virus, 0.14 mg/L (≈ 0.481 µM); with Coxsackievirus B4 [7], above 0.04 mg/L. Also, the EC50 was above 0.04 mg/L in data set [9]; 0.4 mg/L (≈ 1.37 µM) with Human alphaherpesvirus 1 [10]; 0.4 mg/L (≈ 1.37 µM) in the data set on Human alphaherpesvirus 2; above 0.8 mg/L in the data set with Coxsackievirus B4 [11]; above 0.8 mg/L in the data set with Human respirovirus 3; above 0.8 mg/L in the data set with Punta Toro virus. Further, the EC50 in data set [12] is above 0.04 mg/L; in the data set with Human alphaherpesvirus 1 [13], 0.06 mg/L (≈ 0.206 µM).
`COc1cc(/C=N/NC(=O)c2ccncc2)ccc1O` [FTIVAZIDE]: the MCC in data set [1] is 100 µg/mL; in data set [5] it was above 100 µg/mL; in [8], above 100 µg/mL. Besides, the CC50 in data set [2] is at least 89 mg/L. Besides, the “-logMIC” value in the data set with Bacillus subtilis was determined as 2.04; with Escherichia coli it was 2.34; in the data set on Candida albicans, 2.34; in the data set on Staphylococcus aureus, 2.04; in the data set with Aspergillus niger, 2.34. The EC50 in data set [3] was above 100 mg/L; in data set [4], above 89 mg/L; in the data set with Sindbis virus, above 100 mg/L; in [6], above 89 mg/L; with Vaccinia virus, above 100 mg/L; in the data set with Coxsackievirus B4 [7], above 20 mg/L. Also, the EC50 was above 20 mg/L in data set [9]; above 100 mg/L with Human alphaherpesvirus 1 [10]; above 100 mg/L in the data set on Human alphaherpesvirus 2; above 100 mg/L in the data set on Coxsackievirus B4 [11]; above 100 mg/L in the data set with Human respirovirus 3; above 100 mg/L in the data set on Punta Toro virus. Moreover, the results for the EC50 (in data set [12]; with Human alphaherpesvirus 1 [13]) were above 20 mg/L and above 100 mg/L, respectively.

These data come from ChEMBL document CHEMBL3046007, “Isonicotinic acid hydrazide derivatives: synthesis, antimicrobial activity, and QSAR studies” (Med Chem Res, 2012).
